Results on 24 compounds are retold here after US12448373B2, “Azetidinyl-acetamides as CXCR7 inhibitors” (CHEMOCENTRYX, INC., priority 2021, dated 2025).

Some results are limits rather than exact numbers.

The term IC50 denotes the concentration needed to halve the response being measured. A lower IC50 goes with greater potency in that assay.

T1 sequence (P25106 whole entry): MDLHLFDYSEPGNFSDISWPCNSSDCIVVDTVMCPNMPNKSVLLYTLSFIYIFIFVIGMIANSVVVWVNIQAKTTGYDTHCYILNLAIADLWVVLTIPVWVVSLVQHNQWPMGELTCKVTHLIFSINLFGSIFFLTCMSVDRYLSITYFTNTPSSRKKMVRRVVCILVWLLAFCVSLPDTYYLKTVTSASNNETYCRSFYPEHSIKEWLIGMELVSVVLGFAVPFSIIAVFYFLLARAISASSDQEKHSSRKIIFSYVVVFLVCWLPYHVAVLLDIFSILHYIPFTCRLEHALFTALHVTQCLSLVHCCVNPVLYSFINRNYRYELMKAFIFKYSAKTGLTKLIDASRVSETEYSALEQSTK

This assay has as its target T1, CXCR7 (Homo sapiens, UniProt P25106).
T1 construct: expressed in transfected cells; host or cells: CHO cells (CHO-CXCR7), transgenes maintained with Hygromycin B and G418
As to the kind of experiment: CXCR7 β-arrestin recruitment assay in CHO-CXCR7 cells (ProLink/EA β-galactosidase complementation), induced by human SDF-1a. Format: cell-based. The note with it: assay buffer, SDF-1a at EC50 concentration. In short, it runs like this:
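CHO cells co-expressing ProLink-tagged CXCR7 and β-arrestin-EA were pre-plated overnight, then given compound and human SDF-1α at its same-day EC50. After 1.5 h at 37 °C, complemented β-galactosidase was read from 0.4 mM 3-carboxyumbelliferyl β-D-galactopyranoside (30 min, 37 °C; ex 360/em 465 nm). IC50 by 3-parameter fit.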
Background: Activated receptors often draw arrestin, which recruitment assays turn into a signal.
The compound `CC(C)(NC(=O)CC1(NC(=O)c2cc(-c3ccc(F)cc3F)on2)CN(C2CCCCC2)C1)c1ccc(F)cc1` [Example 1.298] showed an IC50 of 5 to 100 nM.

`COC1CCC(N2CC(CC(=O)NC(C)(C)c3ccccn3)(NC(=O)c3cc(-c4ccc(F)cc4F)on3)C2)CC1` (stereo not drawn) [Example 1.299] gave an IC50 of 5 to 100 nM.

`CC(C)(NC(=O)CC1(NC(=O)c2cc(-c3ccc(F)cc3F)on2)CN(C2CCC(O)CC2)C1)c1ccccn1` (stereo not drawn) [Example 1.300] displayed an IC50 of 5 to 100 nM.

With `CC(C)(NC(=O)CC1(NC(=O)c2cc(-c3ccc(F)cc3F)on2)CN(C2CCCCC2)C1)c1cccc(F)c1` [Example 1.301], the IC50 is < 5 nM.

Take `CC(C)(NC(=O)CC1(NC(=O)c2cc(-c3ccc(F)cc3F)on2)CN(C2CCCCC2)C1)c1ccccc1F` [Example 1.302]: the IC50 is < 5 nM.

Regarding `CC(C)(NC(=O)CC1(NC(=O)c2cc(-c3ccc(F)cc3F)on2)CN([C@H]2CC[C@](C)(O)CC2)C1)c1ccccn1` [Example 1.303], the IC50 was < 5 nM.

`CC[C@H](NC(=O)CC1(NC(=O)c2cc(-c3ccc(F)cc3F)on2)CN(C2CCCCC2)C1)c1ccccc1` [Example 1.304] gave an IC50 of 5 to 100 nM.

Turning to `COC1CCCCC1N1CC(CC(=O)NC(C)(C)c2ccccn2)(NC(=O)c2cc(-c3ccc(F)cc3F)on2)C1` (stereo not drawn) [Example 1.305], the IC50 is < 5 nM.

`O=C(CC1(NC(=O)c2cc(-c3ccc(F)cc3F)on2)CN(C2CCCCC2)C1)NC1(c2ccccn2)CC1` [Example 1.306] yielded an IC50 of 5 to 100 nM.

`CC[C@@H](NC(=O)CC1(NC(=O)c2cc(-c3ccc(F)cc3F)on2)CN(C2CCCCC2)C1)c1ccccc1` [Example 1.307]: the IC50 was 5 to 100 nM.

For the compound `CC(C)(NC(=O)CC1(NC(=O)c2cc(-c3ccc(F)cc3F)on2)CN(C2CCCCC2)C1)c1ccccc1C(F)(F)F` [Example 1.308], the IC50 was < 5 nM.

Regarding `CC(C)(CO)NC(=O)CC1(NC(=O)c2cc(-c3ccc(F)cc3F)on2)CN(C2CCCCC2)C1` [Example 1.309], the IC50 is 100 to 1000 nM.

`O=C(CC1(NC(=O)c2cc(-c3ccc(F)cc3F)on2)CN(C2CCCCC2)C1)N[C@@H](CO)c1ccccc1` [Example 1.310] came in with an IC50 of 1000 to 20000 nM.

Consider `CC(C)(NC(=O)CC1(NC(=O)c2cc(-c3ccc(F)cc3F)on2)CN(C2CCCCC2(F)F)C1)c1ccccn1` (stereo not drawn) [Example 1.311], for which the IC50 lay in the range of 5 to 100 nM.

Turning to `CC(N1CC(CC(=O)NC(C)(C)c2ccccn2)(NC(=O)c2cc(-c3ccc(F)cc3F)on2)C1)C(F)(F)F` (stereo not drawn) [Example 1.312], the IC50 lay within 1000 to 20000 nM.

On to `CC(C)(NC(=O)CC1(NC(=O)c2cc(-c3ccc(F)cc3F)on2)CN(C2CC2)C1)c1ccccn1` [Example 1.313], for which the IC50 was 5 to 100 nM.

`CC(C)(NC(=O)CC1(NC(=O)c2cc(-c3ccc(F)cc3F)on2)CN(c2ccccn2)C1)c1ccccn1` [Example 1.314]: the IC50 fell in the range of 1000 to 20000 nM.

In turn, `CC(C)(NC(=O)CC1(NC(=O)c2cc(-c3ccc(F)cc3F)on2)CN(c2ncccn2)C1)c1ccccn1` [Example 1.315] returned an IC50 of 1000 to 20000 nM.

As for `O=C(CC1(NC(=O)c2cc(-c3ccc(F)cc3F)on2)CN(C2CCCCC2)C1)N[C@H](CO)c1ccccc1` [Example 1.316], the IC50 lay in the range of 5 to 100 nM.

For `CC(C)(NC(=O)CC1(NC(=O)c2cc(-c3ccc(F)cc3F)on2)CN(C2CCOCC2)C1)c1ccccn1` [Example 1.317], the IC50 was 5 to 100 nM.

On to `CC(C)(NC(=O)CC1(NC(=O)c2cc(-c3ccc(F)cc3F)on2)CN(C2CCCCC2)C1)c1ccccc1` [Example 1.318], for which the IC50 is < 5 nM.

Regarding `CC(C)(NC(=O)CC1(NC(=O)c2cc(-c3ccc(F)cc3F)on2)CN(C2CCC(F)(F)CC2)C1)c1ccccn1` [Example 1.319], the IC50 was in the range of 5 to 100 nM.

Compound `O=C(CC1(NC(=O)c2cc(-c3ccc(F)cc3F)on2)CN(C2CCCCC2)C1)NC1(c2ccccc2)COC1` [Example 1.320] came in with an IC50 of 5 to 100 nM.

In the case of `O=C(CC1(NC(=O)c2cc(-c3ccc(F)cc3F)on2)CN(CC2CC2)C1)NC1(c2ccccc2)CC1` [Example 1.321], the IC50 lay in the range of 100 to 1000 nM.
